Laboratory results reported in patent US8119638B2, “Compositions and uses of ET743 for treating cancer” (Pharma Mar, S.A., priority 2007, dated 2012).
Entries after “also recorded” stand apart in the source; their conditions may differ. Like-named read-outs stand apart in the source and are kept apart here.

Assays:
sc B 16 tumor = sc B 16 tumor model in male rats, dexamethasone pre-treatment plus ET743; conditions: Day 14, q2dx5, iv; for Vol. (tumor volume): preliminary results
Protocol: The sc B 16 tumor model in male rats was used to compare dexamethasone pre-treated (3 mg/kg total dose; −15 min.), ET743 (90 μg/kg TD) animals to ET alone on a q2dx5, iv, schedule.

[1] = test system: advanced/metastatic soft tissue sarcoma (STS) and gastrointestinal stromal tumor (GIST); assay: Example 1: trials with 24 h iv continuous infusion every 3 or 4 weeks in STS and GIST patients; format: in vivo, human; design: tolerability of treatment / safety/toxicities observed: dose or concentration left out as unconfirmed; conditions: for evaluable patients with stable disease or minor responses: after 2 cycles of therapy
[2] = test system: advanced/metastatic soft tissue sarcoma; assay: Example 3: trial with 24 h iv continuous infusion every 3 weeks in pretreated sarcoma patients; format: in vivo, human; conditions: 34 evaluable patients
[3] = for recommended dose level (RD): patients
Source text: The method consists of administration of drug by intravenous infusion over a period of 72 hrs or less at the recommended dose level (RD) with or without combination with other therapeutic agents.
The Recommended Dose (RD) is the highest dose which can be safely administered to a patient producing tolerable, manageable and reversible toxicity according to the Common Toxicity Criteria established by the National Cancer Institute (USA), with no more than 2 out of 6 patients presenting any dose limiting toxicities (DLT). Guidelines for cancer therapy frequently call for administration of chemotherapeutic agents at the highest safe dose at which toxicity is manageable in order to achieve maximum efficacy (DeVita, V. T. Jr., Hellman, S, and Rosenberg, S. A., Cancer: Principles and Practice of Oncology, 3rd ed., 1989, Lipincott, Philadelphia).

[4] = test system: xenografts of breast cancer, non-small cell lung, melanoma and ovarian cancer; conditions: cited from earlier work
[5] = test system: advanced/metastatic soft tissue sarcoma; assay: Example 3: trial with 24 h iv continuous infusion every 3 weeks in pretreated sarcoma patients; format: in vivo, human
Protocol: Data was analyzed from a trial with 24 h iv continues infusion of ET 743 every 3 weeks on 20 pretreated advanced/metastatic soft tissue sarcoma patients, with all except two patients being treated at a dose level of 1500 μg/m^2
35 Soft tissue sarcoma (STS)
22 patients had bulky disease at study entry, with 56% of disease progression under prior regime
age 16 to 71 years (median 45 yrs)
performance status 0 (0-2) (ECOG criteria)
[…] number of prior chemotherapy treatments 2 (1-7)
Most patients had received as prior chemotherapy treatments Anthracyclines and alkylators

[6] = test system: advanced and/or metastatic cancers refractory to previous treatments; conditions: cited from earlier work
[7] = test system: advanced/metastatic breast cancer; assay: Example 2: trial with 24 h iv continuous infusion every 3 weeks in pretreated breast cancer patients; format: in vivo, human
Protocol: Data was analyzed from a trial with 24 h iv continues infusion of ET 743 every 3 weeks on 20 pretreated advanced/metastatic breast cancer patients, at a dose level of 1500 μg/m^2.
all presenting measurable disease and progressing at study entry age 33 to 64 years (median 50 yrs)
performance status 0-1 (ECOG criteria)
[…] number of involved organs: 2 (range 1-6)

[8] = test system: advanced and/or metastatic cancers refractory to previous treatments; assay: Clinical trials using the method of the invention: plasma levels and objective responses; format: in vivo, human
Protocol: The administration is performed in cycles, in the preferred application method, an intravenous infusion of ET734 is given to the patients the first week of each cycle, the patients are allowed to recover for the remainder of the cycle. The preferred duration of each cycle is of either 3 or 4 weeks; multiple cycles can be given as needed. The drug may also be administered each of the first days of each cycle. Dose delays and/or dose reductions and schedule adjustments are performed as needed depending on individual patient tolerance of treatments, in particular does reductions are recommended for patients with higher than normal serum levels of liver transaminases or alkaline phosphatase, or bilirubin.
Definitions for patient responses are adopted from WHO Common Toxicity Criteria and the responses determined following standard medical practice in the field.

[9] = 56 cycles administered, 1500 μg/m^2 24 h infusion every 3 weeks
[10] = 24 h iv continuous infusion every 3 or 4 weeks

Structure (SMILES): C[C@@H]1C[C@H]2[C@@H]3CCC4=CC(=O)C=C[C@]4(C)[C@@]3(F)[C@@H](O)C[C@]2(C)[C@@]1(O)C(=O)CO [DEX, dexamethasone]
- BW (body weight) (sc B 16 tumor): 217 grams
- Vol. (tumor volume) (sc B 16 tumor): 17,252 mm^3
- nausea ([1]; dexamethasone as a prophylactic anti emetic with ET 743 24 h infusion): essentially eliminated

Structure (SMILES): COc1cc2c(cc1O)CCN[C@]21CS[C@@H]2c3c(OC(C)=O)c(C)c4c(c3[C@H](COC1=O)N1[C@@H]2[C@H]2c3c(cc(C)c(OC)c3O)C[C@@H]([C@@H]1O)N2C)OCO4 [ET743, ecteinascidin 743]
- disease stabilizations (number) [2]: 11
- duration of most disease stabilizations [2]: ≥ 3 months
- minor responses (number) [2]: 3
- minor responses which became post surgical complete response [2]: one
- partial responses (number) [2]: 4
- partial responses (percent) [2]: 11.7%
- partial responses which became post surgical complete response [2]: two
- recommended dose level (RD) ([3]; 3 hr intravenous infusions): 1650 microgram per m2 body surface area
- recommended dose level (RD) ([3]; 3 hr intravenous infusions, listed as ET-743): 1650 microgram per m2 body surface
- recommended dose level (RD) ([3]; 24 hr intravenous infusions): 1500 microgram per m2 of body surface area
- dose limiting toxicities (DLTs) ([3]; human, in vivo): myelosuppression and malaise
- doses with too large a fraction of patients presenting DLT, too toxic for safe administration ([3]; human, in vivo): ≥ 1800 microgram per m2
- patients presenting severe dose limiting toxic responses ([3]; human, in vivo): 2 out of 4
- therapeutic window / toxicity ([3]; human, in vivo): positive therapeutic window with manageable toxicity
- RD for this schedule ([3]; intravenous infusion over 5 consecutive days, 24 hr daily): 1625 microgram per m2 of body surface area
- RD for this schedule ([3]; intravenous infusion over 72 hr): 1050 microgram per m2 of body surface area
- action in animal models [4]: promising action
- Acute, reversible transaminitis, grade 3 or 4 toxicities reported per cycle ([5]; 137 cycles administered): 44%
- Asthenia (grade 2/3), number reported per cycle ([5]; 137 cycles administered): 13
- Asthenia (grade 2/3), reported per cycle (percent) ([5]; 137 cycles administered): 23%
- Thrombocytopenia, grade 3 or 4 toxicities reported per cycle ([5]; 137 cycles administered): 5%
- febrile neutropenia, grade 3 or 4 toxicities reported per cycle ([5]; 137 cycles administered): 6.5%
- Neutropenia, grade 3 or 4 toxicities reported per cycle ([5]; 137 cycles administered, 1500 μg/m^2 24 h infusion every 3 weeks): 34%
- responses in osteo sarcomas ([5]; osteo sarcoma patients): 2 out of 3
- patient response (case reported in June 98) ([6]; breast cancer, dose level of 1800 microgram m2): breast cancer response
- patient response (previously reported case) ([6]; melanoma patient, 1 hr infusion): response in a melanoma patient
- Vol. (tumor volume) (sc B 16 tumor): 15,243 mm^3
- patients achieving disease stabilization ([7]; 16 evaluable patients): Six
- partial responses (number of patients) ([7]; 16 evaluable patients, pleuropulmonary and thoracic skin involvement, no primary resistance to either pretreatment drug): Two
- Asthenia (grade 2/3), number reported per cycle [7, 9]: 13
- Asthenia (grade 2/3), reported per cycle (percent) [7, 9]: 23%
- Neutropenia, grade 3 or 4 toxicities reported per cycle (percent) [7, 9]: 50%
- Neutropenia, number of grade 3 or 4 toxicities reported per cycle [7, 9]: 25
- Reversible transaminitis, grade 3 or 4 toxicities reported per cycle (percent) [7, 9]: 60%
- Reversible transaminitis, number of grade 3 or 4 toxicities reported per cycle [7, 9]: 34
- Thrombocytopenia, grade 3 or 4 toxicities reported per cycle (percent) [7, 9]: 2%
- Thrombocytopenia, number of grade 3 or 4 toxicities reported per cycle [7, 9]: 4
- patients with sustained decrease in CA 15-3 ([7]; among the stabilized patients): two
- safety/toxicities observed [1, 10]: Myelosuppression; also recorded: Temporary/asymptomatic transaminitis; also recorded: Fatigue
- tolerability of treatment [1, 10]: very good
- evaluable patients with stable disease or minor responses ([1]; STS patients with prior chemotherapy treatment): 4 out of 12
- evaluable patients with stable disease or minor responses ([1]; STS patients without any prior chemotherapy treatment): 6 out of 10
- activity by histology ([1]; liposarcoma, leiomyo sarcoma, and synovial sarcoma): preliminary evidence of activity
- objective responses ([8]; advanced and/or metastatic cancers refractory to previous treatments: soft tissue, bone and gastrointestinal stromal sarcoma, breast cancer and melanoma): Objective responses were obtained
- clinical marker response ([8]; ovarian cancer): positive clinical marker response
- plasma levels ([8]; patients at RD): appropriate plasma levels were achieved
- activity ([8]; variety of suboptimal schedules, advanced ocular melanoma and mesothelioma): Evidence of activity
